Format in all cases: cell-based
One experiment addresses T1, human TLR7 (Homo sapiens, UniProt Q9NYK1).
T1 construct: host or cells: HEK-Blue cells (HEK293-derived reporter line)
T1 sequence (Q9NYK1 27-1049): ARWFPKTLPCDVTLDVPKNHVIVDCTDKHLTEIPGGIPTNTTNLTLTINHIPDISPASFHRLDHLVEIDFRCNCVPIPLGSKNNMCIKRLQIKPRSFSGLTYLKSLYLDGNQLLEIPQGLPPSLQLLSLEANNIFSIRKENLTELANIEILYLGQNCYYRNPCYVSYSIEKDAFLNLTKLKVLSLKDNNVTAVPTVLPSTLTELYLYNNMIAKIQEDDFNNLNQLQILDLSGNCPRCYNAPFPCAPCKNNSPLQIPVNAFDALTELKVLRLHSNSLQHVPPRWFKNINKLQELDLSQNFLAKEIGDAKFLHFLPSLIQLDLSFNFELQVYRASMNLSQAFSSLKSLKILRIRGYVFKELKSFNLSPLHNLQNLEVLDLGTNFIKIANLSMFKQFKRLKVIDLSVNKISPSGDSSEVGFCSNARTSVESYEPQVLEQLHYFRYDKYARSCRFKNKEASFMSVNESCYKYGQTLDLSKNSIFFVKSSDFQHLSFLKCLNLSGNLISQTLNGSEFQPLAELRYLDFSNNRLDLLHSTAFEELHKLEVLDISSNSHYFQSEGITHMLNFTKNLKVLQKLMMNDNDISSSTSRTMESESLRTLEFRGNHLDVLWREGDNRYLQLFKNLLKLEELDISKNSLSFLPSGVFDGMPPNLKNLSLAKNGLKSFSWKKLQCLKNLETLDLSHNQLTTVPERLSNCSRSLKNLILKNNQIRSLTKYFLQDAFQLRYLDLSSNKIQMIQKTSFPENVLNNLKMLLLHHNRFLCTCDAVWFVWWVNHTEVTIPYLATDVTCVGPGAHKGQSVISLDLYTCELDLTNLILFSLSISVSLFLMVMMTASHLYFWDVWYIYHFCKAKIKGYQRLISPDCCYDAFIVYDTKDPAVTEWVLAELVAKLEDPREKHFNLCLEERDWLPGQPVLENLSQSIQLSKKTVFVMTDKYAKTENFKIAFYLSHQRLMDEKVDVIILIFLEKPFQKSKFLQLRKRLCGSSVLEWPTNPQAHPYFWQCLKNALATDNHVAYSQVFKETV
The experiment can be described thus: TLR7 inhibition reporter assay (HEK-Blue cells, SEAP reporter, gardiquimod stimulation). The note with it: HEK-Blue cells overexpressing human TLR7, SEAP reporter, gardiquimod 7.5 μM. An outline of the steps: (§1)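 After 22 h at 37 °C, SEAP secretion was measured from human TLR7-, TLR8- or TLR9-expressing HEK-Blue reporter cells given compound (0.05 nM–50 μM) 30 min before agonist: 7.5 μM gardiquimod, 15.9 μM R848 or 5 nM ODN2006 respectively. Percent inhibition referenced to agonist-plus-DMSO and known-inhibitor wells.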

A further experiment addresses T2, human TLR8 (Homo sapiens, UniProt Q9NR97).
T2 construct: host or cells: HEK-Blue cells (HEK293-derived reporter line)
T2 sequence (Q9NR97 27-1041): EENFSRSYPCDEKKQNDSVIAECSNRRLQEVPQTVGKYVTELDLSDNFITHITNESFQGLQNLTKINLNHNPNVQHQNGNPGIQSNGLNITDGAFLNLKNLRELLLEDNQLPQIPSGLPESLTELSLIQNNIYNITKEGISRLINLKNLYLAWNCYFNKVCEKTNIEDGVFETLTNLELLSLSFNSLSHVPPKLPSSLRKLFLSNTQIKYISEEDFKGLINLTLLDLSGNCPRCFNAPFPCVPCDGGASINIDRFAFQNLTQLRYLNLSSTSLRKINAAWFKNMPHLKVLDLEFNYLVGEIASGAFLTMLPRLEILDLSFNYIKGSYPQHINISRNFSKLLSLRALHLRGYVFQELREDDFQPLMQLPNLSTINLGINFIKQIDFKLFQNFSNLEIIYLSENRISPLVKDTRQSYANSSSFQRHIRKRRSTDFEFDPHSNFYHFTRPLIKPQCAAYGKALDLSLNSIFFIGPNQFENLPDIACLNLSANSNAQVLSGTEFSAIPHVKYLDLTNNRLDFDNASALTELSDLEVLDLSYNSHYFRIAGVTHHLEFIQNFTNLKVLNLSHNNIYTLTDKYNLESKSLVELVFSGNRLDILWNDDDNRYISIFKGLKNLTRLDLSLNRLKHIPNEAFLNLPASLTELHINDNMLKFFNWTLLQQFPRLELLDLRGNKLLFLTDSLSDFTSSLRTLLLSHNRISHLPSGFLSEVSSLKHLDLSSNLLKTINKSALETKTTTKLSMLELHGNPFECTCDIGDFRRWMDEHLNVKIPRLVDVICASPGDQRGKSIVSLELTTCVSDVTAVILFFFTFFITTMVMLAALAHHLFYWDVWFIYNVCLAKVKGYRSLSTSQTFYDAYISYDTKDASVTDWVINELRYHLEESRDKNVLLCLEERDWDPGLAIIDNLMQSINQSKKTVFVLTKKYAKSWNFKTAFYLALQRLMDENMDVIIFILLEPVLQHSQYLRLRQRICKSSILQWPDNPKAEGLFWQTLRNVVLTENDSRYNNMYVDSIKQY
As to the kind of experiment: TLR8 inhibition reporter assay (HEK-Blue cells, SEAP reporter, R848 stimulation). The conditions noted are these: HEK-Blue cells overexpressing human TLR8, SEAP reporter, R848 15.9 μM. An outline of the steps: as §1
A general note: Reporter assays use an easily measured gene product as a stand-in for the process of interest.

A further experiment has as its target T3, human TLR9 (Homo sapiens, UniProt Q9NR96).
T3 construct: host or cells: HEK-Blue cells (HEK293-derived reporter line)
T3 sequence (Q9NR96 26-1032): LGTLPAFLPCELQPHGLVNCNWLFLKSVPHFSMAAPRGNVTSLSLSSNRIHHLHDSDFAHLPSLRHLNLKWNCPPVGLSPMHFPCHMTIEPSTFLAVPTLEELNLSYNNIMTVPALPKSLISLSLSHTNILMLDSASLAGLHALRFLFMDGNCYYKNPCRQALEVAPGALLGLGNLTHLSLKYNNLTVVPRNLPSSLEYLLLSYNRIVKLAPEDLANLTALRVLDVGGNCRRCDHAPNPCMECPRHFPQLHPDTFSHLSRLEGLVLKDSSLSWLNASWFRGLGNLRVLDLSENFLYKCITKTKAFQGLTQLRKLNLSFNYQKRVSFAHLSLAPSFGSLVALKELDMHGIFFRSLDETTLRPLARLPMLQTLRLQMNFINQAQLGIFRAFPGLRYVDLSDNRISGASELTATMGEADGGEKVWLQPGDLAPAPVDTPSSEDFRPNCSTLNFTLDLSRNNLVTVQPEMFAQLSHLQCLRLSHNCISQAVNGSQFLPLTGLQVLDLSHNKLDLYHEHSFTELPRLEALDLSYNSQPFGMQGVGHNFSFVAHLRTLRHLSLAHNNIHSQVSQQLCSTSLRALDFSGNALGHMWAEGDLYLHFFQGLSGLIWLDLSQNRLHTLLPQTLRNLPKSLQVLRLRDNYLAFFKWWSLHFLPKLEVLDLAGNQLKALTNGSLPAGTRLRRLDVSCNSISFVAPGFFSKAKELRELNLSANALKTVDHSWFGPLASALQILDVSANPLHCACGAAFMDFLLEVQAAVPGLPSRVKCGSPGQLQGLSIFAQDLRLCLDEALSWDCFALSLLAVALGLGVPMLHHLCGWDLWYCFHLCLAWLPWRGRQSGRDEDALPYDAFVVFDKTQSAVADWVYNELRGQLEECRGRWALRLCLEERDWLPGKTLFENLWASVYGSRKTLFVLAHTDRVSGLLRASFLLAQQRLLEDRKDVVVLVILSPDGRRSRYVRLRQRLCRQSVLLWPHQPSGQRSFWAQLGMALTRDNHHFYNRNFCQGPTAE
The experiment can be described thus: TLR9 inhibition reporter assay (HEK-Blue cells, SEAP reporter, ODN2006 stimulation). The note with it: HEK-Blue cells overexpressing human TLR9, SEAP reporter, ODN2006 5 nM. An outline of the steps: as §1

A value given as a limit tells only on which side of the number the result lay.

As a reminder, the IC50 is the concentration that inhibits the measured activity by half. A high value points to weaker potency.

For the compound `CC(C)c1c(-c2ccc(C#N)c3ncccc23)[nH]c2ccc(C3CCN(C4COC4)CC3)cc12` [Example 714, 5-(3-isopropyl-5-(1-(oxetan-3-yl)piperidin-4-yl)-1H-indol-2-yl)quinoline-8-carbonitrile], the IC50 at human TLR7 was less than 100 nM; against human TLR8 it was less than 100 nM; on human TLR9 it was more than 50000 nM.

With `Cc1cc(-c2[nH]c3ccc(C4CCNCC4)cc3c2C(C)C)cc2cn(C)nc12` [Example 138, 5-(3-isopropyl-5-(piperidin-4-yl)-1H-indol-2-yl)-2,7-dimethyl-2H-indazole], the IC50 against human TLR7 was less than 100 nM; against human TLR8, less than 100 nM; against human TLR9 it was 1000 to 50000 nM.

In the case of `CCc1c(-c2cccc3[nH]ncc23)[nH]c2ccc(C3CCNCC3)cc12` [Example 182, 4-(3-ethyl-5-(piperidin-4-yl)-1H-indol-2-yl)-1H-indazole], the IC50 against human TLR7, at human TLR8 and against human TLR9 was 1000 to 50000 nM each time.

With `CC(C)c1c(-c2ccc3nc(N)cn3n2)[nH]c2ccc(C3CCNCC3)cc12` [Example 24, 6-(3-isopropyl-5-(piperidin-4-yl)-1H-indol-2-yl)imidazo[1,2-b]pyridazin-2-amine], the IC50 against human TLR7, against human TLR8 and on human TLR9 was 1000 to 50000 nM each time.

For `Cc1cc(-c2[nH]c3ccc(C4CCNCC4)cc3c2C(C)C)cn2nncc12` [Example 70, 6-(3-isopropyl-5-(piperidin-4-yl)-1H-indol-2-yl)-4-methyl-[1,2,3]triazolo[1,5-a]pyridine], the 50% inhibitory concentration (IC50) is 100 to 1000 nM on human TLR7, 100 to 1000 nM against human TLR8 and 1000 to 50000 nM against human TLR9.

Consider `CNCC(=O)N1CCC(c2ccc3[nH]c(-c4cc(C)nc5ccccc45)c(C(C)C)c3c2)CC1` [Example 534, 1-(4-(3-isopropyl-2-(2-methylquinolin-4-yl)-1H-indol-5-yl)piperidin-1-yl)-2-(methylamino)ethan-1-one], for which the IC50 is less than 100 nM against human TLR7, less than 100 nM against human TLR8 and 1000 to 50000 nM on human TLR9.

With `Cc1cn2cc(-c3[nH]c4ccc(C5CCN(C(=O)CN(C)C)CC5)cc4c3C(C)C)cc(C(F)(F)F)c2n1` [Example 511, 2-(dimethylamino)-1-(4-(3-isopropyl-2-(2-methyl-8-(trifluoromethyl)imidazo[1,2-a]pyridin-6-yl)-1H-indol-5-yl)piperidin-1-yl)ethan-1-one], the IC50 against human TLR7 was less than 100 nM; against human TLR8, 100 to 1000 nM; against human TLR9, 100 to 1000 nM.

Regarding `COc1cc(-c2[nH]c3ccc(C4CCN(CC(C)(C)O)CC4)cc3c2C(C)C)nn2ncnc12` [Example 749, 1-(4-(3-isopropyl-2-(8-methoxy-[1,2,4]triazolo[1,5-b]pyridazin-6-yl)-1H-indol-5-yl)piperidin-1-yl)-2-methylpropan-2-ol], the IC50 was less than 100 nM on human TLR7, less than 100 nM against human TLR8 and 1000 to 50000 nM at human TLR9.

Take `CC(C)c1c(-c2ccnc3[nH]ncc23)[nH]c2ccc(C3CCN(C(=O)CN4CCN(c5ccncc5)CC4)CC3)cc12` [Example 591, 1-(4-(3-isopropyl-2-(1H-pyrazolo[3,4-b]pyridin-4-yl)-1H-indol-5-yl)piperidin-1-yl)-2-(4-(pyridin-4-yl)piperazin-1-yl)ethan-1-one]: the IC50 on human TLR7 was less than 100 nM; on human TLR8, less than 100 nM; on human TLR9, 100 to 1000 nM.

As to `CC(C)c1c(-c2ccnc3cccnc23)[nH]c2ccc(C3CCNCC3)cc12` [Example 22, 4-(3-isopropyl-5-(piperidin-4-yl)-1H-indol-2-yl)-1,5-naphthyridine], the IC50 on human TLR7 is 100 to 1000 nM; on human TLR8, less than 100 nM; against human TLR9 it was 1000 to 50000 nM.

With `Cc1cc(-c2[nH]c3ccc(C4CCN(CC(=O)N(C)C)CC4)cc3c2C(C)C)cc2[nH]cnc12` [Example 287, 2-(4-(3-isopropyl-2-(4-methyl-1H-benzo[d]imidazol-6-yl)-1H-indol-5-yl)piperidin-1-yl)-N,N-dimethylacetamide], the IC50 against human TLR7 is 1000 to 50000 nM; against human TLR8, 100 to 1000 nM; against human TLR9 it was 1000 to 50000 nM.

With `CC(C)c1c(-c2cc3c(s2)CNCC3)[nH]c2ccc(C3CCNCC3)cc12` [Example 207, 2-(3-isopropyl-5-(piperidin-4-yl)-1H-indol-2-yl)-4,5,6,7-tetrahydrothieno [2,3-c]pyridine], the IC50 was 100 to 1000 nM against human TLR7, 1000 to 50000 nM at human TLR8 and less than 100 nM at human TLR9.

In the case of `CC(C)c1c(-c2ccn3nnnc3c2)[nH]c2ccc(C3CCN(CC(=O)N(C)C)CC3)cc12` [Example 304, 2-(4-(3-isopropyl-2-(tetrazolo[1,5-a]pyridin-7-yl)-1H-indol-5-yl)piperidin-1-yl)-N,N-dimethylacetamide], the IC50 against human TLR7 was less than 100 nM; against human TLR8, 100 to 1000 nM; against human TLR9, 1000 to 50000 nM.

(Values after US11739098B2 (BRISTOL-MYERS SQUIBB COMPANY, priority 2017, dated 2023).)
